From publication PMC6593445, “Promiscuous terpene synthases from Prunella vulgaris highlight the importance of substrate and compartment switching in terpene synthase evolution” (The New Phytologist, 2019)

Legend:
Test in all cases: in vitro TPS assay, GC-MS of products
Format in all cases: biochemical
Conditions in all cases: 10 mM MgCl2, 100 mM KCl, 5 mM DTT, 50 mM HEPES pH 7.2, 30 °C, 4 h
[1] = biological target: T1, PvTPS2 (Prunella vulgaris, UniProt A0A3S8D7T7)
T1 construct: N-terminal truncation removing 48 aa predicted plastid transit peptide; pET28b+, E. coli C41, Ni-NTA purified; TPS-a subfamily
T1 sequence (A0A3S8D7T7 49-597): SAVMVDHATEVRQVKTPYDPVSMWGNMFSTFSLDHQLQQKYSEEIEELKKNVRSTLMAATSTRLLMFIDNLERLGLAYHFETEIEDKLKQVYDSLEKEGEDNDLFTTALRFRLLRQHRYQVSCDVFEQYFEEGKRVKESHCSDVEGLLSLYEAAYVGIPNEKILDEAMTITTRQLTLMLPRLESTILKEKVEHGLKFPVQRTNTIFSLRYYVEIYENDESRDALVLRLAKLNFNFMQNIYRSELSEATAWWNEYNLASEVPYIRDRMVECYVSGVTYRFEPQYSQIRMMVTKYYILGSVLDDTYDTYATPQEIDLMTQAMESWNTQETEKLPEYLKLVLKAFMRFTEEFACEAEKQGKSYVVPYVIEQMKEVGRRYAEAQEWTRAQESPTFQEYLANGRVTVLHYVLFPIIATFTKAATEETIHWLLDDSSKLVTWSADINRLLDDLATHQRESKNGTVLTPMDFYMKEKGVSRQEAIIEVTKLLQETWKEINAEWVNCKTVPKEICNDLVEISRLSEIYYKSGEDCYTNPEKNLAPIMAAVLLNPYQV

[2] = biological target: T2, PvTPS4 (Prunella vulgaris, UniProt A0A3S8D7W5)
T2 construct: full length, cytosolic (no transit peptide); pET28b+, E. coli C41, Ni-NTA purified; TPS-a subfamily

[3] = biological target: T3, PvTPS5 (Prunella vulgaris, UniProt A0A3S8D7W9)
T3 construct: full length, cytosolic (no transit peptide); pET28b+, E. coli C41, Ni-NTA purified; TPS-a subfamily
T3 sequence (A0A3S8D7W9 1-555): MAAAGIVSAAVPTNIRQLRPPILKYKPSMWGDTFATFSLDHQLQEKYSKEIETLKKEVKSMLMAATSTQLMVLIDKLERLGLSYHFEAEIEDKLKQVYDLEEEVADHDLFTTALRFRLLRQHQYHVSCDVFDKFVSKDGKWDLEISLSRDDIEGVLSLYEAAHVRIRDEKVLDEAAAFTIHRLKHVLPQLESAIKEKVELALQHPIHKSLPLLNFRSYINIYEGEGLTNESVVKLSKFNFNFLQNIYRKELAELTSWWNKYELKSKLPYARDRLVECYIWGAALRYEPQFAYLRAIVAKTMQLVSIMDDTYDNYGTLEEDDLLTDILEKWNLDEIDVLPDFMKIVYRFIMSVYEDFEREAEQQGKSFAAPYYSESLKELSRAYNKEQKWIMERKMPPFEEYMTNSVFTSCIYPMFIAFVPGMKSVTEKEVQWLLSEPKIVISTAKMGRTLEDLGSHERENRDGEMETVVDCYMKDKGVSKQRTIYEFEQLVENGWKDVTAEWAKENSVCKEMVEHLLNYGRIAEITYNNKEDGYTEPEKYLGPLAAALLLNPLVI

[4] = biological target: T4, PvHVS (Prunella vulgaris, UniProt A0A3Q8J789)
T4 construct: N-terminal truncation removing 43 aa predicted plastid transit peptide; pET28b+, E. coli C41, Ni-NTA purified; TPS-a diterpene synthase
T4 sequence (A0A3Q8J789 44-599): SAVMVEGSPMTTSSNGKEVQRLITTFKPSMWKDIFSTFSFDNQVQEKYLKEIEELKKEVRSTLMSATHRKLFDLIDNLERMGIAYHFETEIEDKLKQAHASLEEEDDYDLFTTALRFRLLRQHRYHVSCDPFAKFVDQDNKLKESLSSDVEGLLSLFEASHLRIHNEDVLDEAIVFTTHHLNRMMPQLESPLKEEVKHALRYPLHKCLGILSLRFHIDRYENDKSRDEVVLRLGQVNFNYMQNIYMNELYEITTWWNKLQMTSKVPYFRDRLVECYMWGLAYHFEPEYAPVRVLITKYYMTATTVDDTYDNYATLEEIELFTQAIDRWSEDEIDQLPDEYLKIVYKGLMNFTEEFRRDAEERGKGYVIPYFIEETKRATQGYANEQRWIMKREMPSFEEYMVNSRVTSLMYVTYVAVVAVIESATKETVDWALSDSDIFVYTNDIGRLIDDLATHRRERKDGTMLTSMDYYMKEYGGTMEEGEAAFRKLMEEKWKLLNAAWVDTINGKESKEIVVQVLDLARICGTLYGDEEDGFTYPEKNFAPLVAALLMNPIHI

T2 sequence (A0A3S8D7W5 entry or part of it): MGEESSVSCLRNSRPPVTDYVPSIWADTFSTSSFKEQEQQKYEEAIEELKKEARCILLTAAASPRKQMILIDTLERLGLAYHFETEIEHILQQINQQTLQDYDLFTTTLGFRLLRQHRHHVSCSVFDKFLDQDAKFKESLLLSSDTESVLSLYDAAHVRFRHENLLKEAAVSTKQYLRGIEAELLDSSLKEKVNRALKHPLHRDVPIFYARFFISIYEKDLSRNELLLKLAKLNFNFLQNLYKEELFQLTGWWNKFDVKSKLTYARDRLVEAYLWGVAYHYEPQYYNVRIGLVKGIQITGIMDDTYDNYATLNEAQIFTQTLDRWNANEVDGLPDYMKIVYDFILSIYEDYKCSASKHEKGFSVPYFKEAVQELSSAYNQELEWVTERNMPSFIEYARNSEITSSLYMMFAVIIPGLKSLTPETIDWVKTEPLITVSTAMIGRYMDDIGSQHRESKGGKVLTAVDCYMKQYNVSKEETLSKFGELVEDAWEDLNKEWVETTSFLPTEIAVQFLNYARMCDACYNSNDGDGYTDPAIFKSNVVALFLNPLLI

| Compound | in vitro TPS assay, GC-MS of products [1] | in vitro TPS assay, GC-MS of products [2] | in vitro TPS assay, GC-MS of products [3] | in vitro TPS assay, GC-MS of products [4] |
| --- | --- | --- | --- | --- |
| CC(C)=CCC/C(C)=C/CC/C(C)=C/COP(=O)(O)OP(=O)(O)O [(E,E)‐FPP] | All four enzymes were active against (E,E)‐FPP both in vitro, and in N. benthamiana | All four enzymes were active against (E,E)‐FPP both in vitro, and in N. benthamiana | All four enzymes were active against (E,E)‐FPP both in vitro, and in N. benthamiana | All four enzymes were active against (E,E)‐FPP both in vitro, and in N. benthamiana |
| CC(C)=CCC/C(C)=C/CC/C(C)=C/CC/C(C)=C/COP(=O)(O)OP(=O)(O)O [GGPP] | Only PvTPS2 and PvHVS were active in vitro and in N. benthamiana against GGPP | – | – | Only PvTPS2 and PvHVS were active in vitro and in N. benthamiana against GGPP |
| CC(C)=CCC/C(C)=C\COP(=O)(O)OP(=O)(O)O [NPP] | – | all four enzymes were found to catalyse cyclisation of NPP | all four enzymes were found to catalyse cyclisation of NPP | – |
